Legend:
methemoglobin (metHb) [1] = settings: in vivo; cited from earlier work
methemoglobin (metHb) [2] = tested on: methemoglobin (metHb); set-up: species or system rats; settings: rat, in vivo

SMILES | maximum metHb levels (methemoglobin (metHb) [1]) | metHb levels achieved (can reach) (methemoglobin (metHb) [2])
CCCCCO[N+](=O)[O-] [amyl nitrate] | 3.45-7.0% | –
CC(C)CCON=O [Isoamyl Nitrite, 3-methylbutyl nitrite] | – | ≥ 20.0%
